Source: ChEMBL document CHEMBL5365420, “Kinetics, Thermodynamics, and Structural Effects of Quinoline-2-Carboxylates, Zinc-Binding Inhibitors of New Delhi Metallo-β-lactamase-1 Re-sensitizing Multidrug-Resistant Bacteria for Carbapenems” (J Med Chem, 2023)
Each block holds one compound with its values, some of them ahead of it.

Tests used:
[1] = target: Metallo-beta-lactamase type 2 (Bacteria, UniProt C7C422)
Description: Inhibition of C-terminal 6His-tagged full length NDM-1 (unknown origin) expressed in Escherichia coli BL21-DE3 using nitrocefin as substrate incubated for 15 mins followed by substrate addition by absorbance based microplate reader analysis

[2] = target: Histone deacetylase 1 (Homo sapiens) (UniProt Q13547); test: Inhibition of C-terminal 6His/FLAG-tagged human recombinant full-length HDAC1 (1 to 482(end) residues) at 10 uM using Boc-Lys-(Ac)-AMC as substrate incubated for 10 mins followed by substrate addition measured after 1 hr by fluorescence based analysis relative to control; details: time 70.0 min
[3] = target: Carbonic anhydrase 2 (Homo sapiens) (UniProt P00918); test: Inhibition of human CA2 at 10 uM using pNPA as substrate preincubated for 15 mins followed by substrate by absorbance based analysis relative to control
[4] = target: T1, 72 kDa type IV collagenase (Homo sapiens, UniProt P08253); test: Inhibition of human recombinant MMP-2 CD at 10 uM using OMNIMMP as substrate incubated for 30 mins by fluorescence based analysis relative to control
Target sequence in this assay (P08253 110-660 limits assumed): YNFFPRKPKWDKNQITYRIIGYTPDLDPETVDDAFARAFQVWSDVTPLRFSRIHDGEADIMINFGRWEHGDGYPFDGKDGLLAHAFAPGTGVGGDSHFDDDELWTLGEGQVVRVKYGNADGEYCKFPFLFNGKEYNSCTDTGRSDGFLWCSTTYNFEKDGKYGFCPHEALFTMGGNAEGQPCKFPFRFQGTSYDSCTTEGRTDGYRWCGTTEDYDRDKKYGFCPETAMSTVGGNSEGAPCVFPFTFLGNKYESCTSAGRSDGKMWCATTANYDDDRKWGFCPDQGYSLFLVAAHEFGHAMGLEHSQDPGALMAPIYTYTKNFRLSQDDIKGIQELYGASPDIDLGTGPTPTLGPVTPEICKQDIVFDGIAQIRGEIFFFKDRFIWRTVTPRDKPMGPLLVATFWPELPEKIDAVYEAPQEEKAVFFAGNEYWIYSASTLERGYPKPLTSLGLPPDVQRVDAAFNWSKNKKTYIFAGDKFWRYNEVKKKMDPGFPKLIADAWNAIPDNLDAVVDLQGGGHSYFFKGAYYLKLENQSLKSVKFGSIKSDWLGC

[5] = Selectivity ratio of Ki for human recombinant MMP-2 CD to Ki for C-terminal 6His-tagged full length NDM-1 (unknown origin)
[6] = target: T1, 72 kDa type IV collagenase; test: Binding affinity to human recombinant MMP-2 CD assessed as inhibition constant using OMNIMMP as substrate incubated for 30 mins by fluorescence based analysis
Target sequence in this assay (P08253 whole entry): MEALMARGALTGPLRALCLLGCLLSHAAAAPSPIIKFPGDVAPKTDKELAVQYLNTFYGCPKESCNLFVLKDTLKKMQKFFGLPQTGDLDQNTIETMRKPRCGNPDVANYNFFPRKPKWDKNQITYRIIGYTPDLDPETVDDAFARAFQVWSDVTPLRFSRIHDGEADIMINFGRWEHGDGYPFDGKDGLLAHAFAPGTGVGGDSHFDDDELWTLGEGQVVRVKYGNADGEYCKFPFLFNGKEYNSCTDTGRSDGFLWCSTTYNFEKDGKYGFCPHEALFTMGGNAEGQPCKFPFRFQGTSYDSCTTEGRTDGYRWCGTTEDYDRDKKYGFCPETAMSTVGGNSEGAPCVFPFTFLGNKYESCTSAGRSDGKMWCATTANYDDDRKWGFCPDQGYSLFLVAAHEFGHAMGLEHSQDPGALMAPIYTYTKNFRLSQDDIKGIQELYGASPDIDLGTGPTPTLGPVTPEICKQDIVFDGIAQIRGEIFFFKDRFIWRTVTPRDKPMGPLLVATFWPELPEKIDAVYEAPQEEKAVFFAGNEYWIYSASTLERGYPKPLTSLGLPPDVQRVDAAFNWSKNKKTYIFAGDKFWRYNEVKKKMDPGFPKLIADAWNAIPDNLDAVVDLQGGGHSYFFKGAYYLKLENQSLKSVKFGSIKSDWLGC

[7] = Inhibition of GIM1 (unknown origin) incubated for 15 mins by absorbance based microplate reader analysis; design: species or system Bacteria
[8] = Inhibition of IMP-1 (unknown origin) expressed in Escherichia coli BL21-DE3 incubated for 15 mins by absorbance based microplate reader analysis; design: species or system Bacteria
[9] = Inhibition of VIM-2 (unknown origin) incubated for 15 mins by absorbance based microplate reader analysis; design: species or system Bacteria

Metallo-beta-lactamase type 2, sequence (C7C422 whole entry): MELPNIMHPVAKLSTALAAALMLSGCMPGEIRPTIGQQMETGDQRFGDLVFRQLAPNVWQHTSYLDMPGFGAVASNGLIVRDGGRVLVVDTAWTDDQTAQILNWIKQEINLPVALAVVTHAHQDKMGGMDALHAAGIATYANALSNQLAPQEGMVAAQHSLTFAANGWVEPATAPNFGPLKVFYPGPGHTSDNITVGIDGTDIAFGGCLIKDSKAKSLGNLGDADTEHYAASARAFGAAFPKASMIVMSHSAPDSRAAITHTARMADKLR
Histone deacetylase 1 (Homo sapiens), sequence (Q13547 whole entry): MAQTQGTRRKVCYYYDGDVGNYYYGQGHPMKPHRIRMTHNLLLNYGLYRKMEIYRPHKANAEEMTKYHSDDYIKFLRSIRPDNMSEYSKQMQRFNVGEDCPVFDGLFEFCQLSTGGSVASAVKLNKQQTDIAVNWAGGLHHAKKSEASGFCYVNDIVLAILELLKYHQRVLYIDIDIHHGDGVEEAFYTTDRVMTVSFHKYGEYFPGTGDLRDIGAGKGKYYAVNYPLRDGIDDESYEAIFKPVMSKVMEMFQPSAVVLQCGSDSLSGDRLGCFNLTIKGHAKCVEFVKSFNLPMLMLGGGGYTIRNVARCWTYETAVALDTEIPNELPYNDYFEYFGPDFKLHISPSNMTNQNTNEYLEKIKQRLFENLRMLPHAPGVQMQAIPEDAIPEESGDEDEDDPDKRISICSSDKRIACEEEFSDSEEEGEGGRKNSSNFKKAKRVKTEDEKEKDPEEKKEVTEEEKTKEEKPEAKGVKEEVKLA

SMILES: COC(=O)c1ccc2cccc(NS(=O)(=O)c3ccc(C(F)(F)F)cc3)c2n1
- IC50 [1]: 0.75 µM

SMILES: O=C(O)c1ccc2c(Cl)ccc(NS(=O)(=O)c3ccccn3)c2n1
- IC50 [1]: 0.29 µM

SMILES: O=C(O)c1cc(Cl)c2cccc(NS(=O)(=O)c3ccccn3)c2n1
- IC50 [1]: 0.28 µM

SMILES: CS(=O)(=O)Nc1c(Cl)cc(Cl)c2ccc(C(=O)O)nc12
- IC50 [1]: > 1000 µM

SMILES: O=C(O)c1ccc2c(I)cc(I)c(O)c2n1
- inhibition [2]: < 5%
- IC50 [1]: 0.3 µM
- inhibition [3]: < 5%
- inhibition [4]: 5%

SMILES: Cc1ccc2cccc(NS(=O)(=O)c3ccccc3)c2n1
- IC50 [1]: 1.6 µM

SMILES: CS(=O)(=O)Nc1ccc(I)c2ccc(C(=O)O)nc12
- inhibition [2]: < 5%
- IC50 [1]: 1.4 µM
- inhibition [3]: < 5%
- inhibition [4]: 94%

SMILES: Cc1ccc2cccc(NS(=O)(=O)c3cccc(F)c3)c2n1
- IC50 [1]: 1.4 µM

SMILES: O=C(O)c1ccccn1 [2-PICOLINIC ACID]
- IC50 [1]: 303 µM

SMILES: O=C(O)c1cc(-c2cccc(F)c2)c2cccc(NS(=O)(=O)c3ccccn3)c2n1
- IC50 [1]: 0.37 µM

SMILES: O=C(NOCc1ccccc1)c1cccc(C(=O)NOCc2ccccc2)n1
- inhibition [2]: < 5%
- IC50 [8]: 102 µM
- IC50 [1]: 7.2 µM
- inhibition [3]: < 5%
- inhibition [4]: < 5%

SMILES: CS(=O)(=O)Nc1cccc2c(Cl)cc(C(=O)O)nc12
- IC50 [7]: 21.1 µM
- inhibition [2]: < 5%
- IC50 [8]: 8.11 µM
- IC50 [1]: 1 µM
- inhibition [3]: < 5%
- IC50 [9]: 0.47 µM
- inhibition [4]: 90%

SMILES: O=C([O-])CN(CCN(CC(=O)[O-])CC(=O)O)CC(=O)O.[Na+].[Na+]
- inhibition [2]: < 5%
- inhibition [3]: < 5%
- inhibition [4]: 23%

SMILES: Oc1cccc2ccc(-c3ccccc3)nc12
- IC50 [1]: > 1000 µM

SMILES: O=C(NOCc1ccccc1)c1ccccn1
- IC50 [1]: 530 µM

SMILES: CONC(=O)c1cccc(C(=O)NOC)n1
- IC50 [1]: 84.3 µM

SMILES: O=C(O)c1ccc2c(Cl)cc(Cl)c(O)c2n1
- IC50 [7]: 1.26 µM
- inhibition [2]: < 5%
- IC50 [8]: 0.48 µM
- IC50 [1]: 0.54 µM
- inhibition [3]: < 5%
- IC50 [9]: 0.16 µM
- inhibition [4]: 20%

SMILES: O=C(NOCc1ccccc1)c1ccc2cccc(O)c2n1
- IC50 [8]: 25.2 µM
- IC50 [1]: 11.2 µM

SMILES: Cc1ccc(S(=O)(=O)Nc2cccc3ccc(C(=O)O)nc23)cc1
- IC50 [1]: 1.41 µM

SMILES: COC(=O)c1ccc2cccc(NS(=O)(=O)c3cccc(F)c3)c2n1
- IC50 [1]: 1.7 µM

SMILES: O=C(O)c1ccc2c(Br)cc(Br)c(O)c2n1
- IC50 [1]: 0.46 µM

SMILES: O=C(O)c1ccc2c(Cl)cc(I)c(O)c2n1
- IC50 [1]: 0.48 µM

SMILES: O=S(=O)(Nc1cccc2cccnc12)c1cccc(F)c1
- IC50 [1]: 6.2 µM

SMILES: O=C(O)c1ccc2c(Cl)c(Cl)cc(NS(=O)(=O)c3ccccn3)c2n1
- IC50 [1]: 0.52 µM

SMILES: CONC(=O)c1cccc(C(=O)O)n1
- IC50 [1]: 27.8 µM

SMILES: O=C(O)c1ccc2cccc(NS(=O)(=O)c3ccc(Cl)cc3)c2n1
- IC50 [1]: 0.45 µM

SMILES: O=C(NOCc1ccccc1)c1ccc2c(Br)cc(Br)c(O)c2n1
- IC50 [1]: 1.47 µM

SMILES: O=C(O)c1ccc2cccc(NS(=O)(=O)c3c(Cl)cc(Cl)cc3Cl)c2n1
- IC50 [1]: 0.44 µM

SMILES: O=C(O)c1ccc2cccc(NS(=O)(=O)c3ccc(C(F)(F)F)cc3[N+](=O)[O-])c2n1
- Ratio Ki [5]: 3
- Ki [6]: 0.6 µM
- IC50 [7]: 1.5 µM
- inhibition [2]: < 5%
- IC50 [8]: 0.24 µM
- IC50 [1]: 0.37 µM
- inhibition [3]: < 5%
- IC50 [9]: 0.38 µM
- inhibition [4]: > 90%

SMILES: Cc1ccc2cccc(O)c2n1 [8-HYDROXY QUINALDINE]
- IC50 [1]: 274 µM

SMILES: CS(=O)(=O)Nc1cc(Cl)c(Cl)c2ccc(C(=O)O)nc12
- IC50 [7]: 11.2 µM
- inhibition [2]: < 5%
- IC50 [8]: 5.23 µM
- IC50 [1]: 0.95 µM
- inhibition [3]: < 5%
- IC50 [9]: 0.47 µM
- inhibition [4]: 91%

SMILES: N#Cc1ccccc1S(=O)(=O)Nc1cccc2ccc(C(=O)O)nc12
- IC50 [1]: 0.47 µM

Second part, the compound after the results:

- IC50 [1]: > 1000 µM
SMILES: O=C(O)c1ccc2c(I)cc(I)c(NS(=O)(=O)c3ccccc3)c2n1

- IC50 [1]: 0.71 µM
SMILES: CS(=O)(=O)Nc1cccc2c(-c3cccc(N)c3)cc(C(=O)O)nc12

- Ratio Ki [5]: 135
- Ki [6]: 27.6 µM
- inhibition [2]: < 5%
- IC50 [1]: 0.41 µM
- inhibition [3]: < 5%
- inhibition [4]: > 90%
SMILES: O=C(O)c1ccc2ccc3c(c2n1)NS(=O)(=O)c1ccc(C(F)(F)F)cc1-3

- IC50 [7]: 15.6 µM
- inhibition [2]: < 5%
- IC50 [8]: 9.75 µM
- IC50 [1]: 7 µM
- inhibition [3]: < 5%
- IC50 [9]: 0.45 µM
- inhibition [4]: < 5%
SMILES: O=C(O)c1cccc(C(=O)O)n1 [DIPICOLINIC ACID]

- inhibition [2]: < 5%
- IC50 [1]: 2.1 µM
- inhibition [3]: < 5%
- inhibition [4]: 95%
SMILES: CS(=O)(=O)Nc1ccc(-c2cccc(N)c2)c2ccc(C(=O)O)nc12

- IC50 [1]: 13.7 µM
SMILES: CONC(=O)c1ccc2cccc(O)c2n1

- IC50 [1]: 0.9 µM
SMILES: O=C(O)c1ccc2cccc(NS(=O)(=O)C(F)(F)F)c2n1

- IC50 [1]: 1240 µM
SMILES: CONC(=O)c1ccccn1

- Ratio Ki [5]: 50
- Ki [6]: 20.7 µM
- IC50 [1]: 0.83 µM
- inhibition [4]: > 90%
SMILES: O=C(O)c1ccc2cccc(NS(=O)(=O)c3cccc4cccnc34)c2n1

- IC50 [1]: > 2000 µM
SMILES: CON(C)C(=O)c1ccccn1

- IC50 [7]: 7.38 µM
- inhibition [2]: < 5%
- IC50 [8]: 10.3 µM
- IC50 [1]: 9.1 µM
- inhibition [3]: < 5%
- IC50 [9]: 0.61 µM
- inhibition [4]: < 5%
SMILES: O=C(O)c1ccc2cccc(O)c2n1

- IC50 [1]: 1.28 µM
SMILES: O=C(O)c1ccc2cccc(NS(=O)(=O)Cc3ccccc3)c2n1

- Ratio Ki [5]: 6
- Ki [6]: 2.12 µM
- IC50 [7]: 3.07 µM
- inhibition [2]: < 5%
- IC50 [8]: 1.22 µM
- IC50 [1]: 0.71 µM
- inhibition [3]: < 5%
- IC50 [9]: 0.43 µM
- inhibition [4]: > 90%
SMILES: O=C(O)c1ccc2cccc(NS(=O)(=O)c3ccccc3)c2n1

- IC50 [1]: > 1000 µM
SMILES: O=C(NO)c1cccc(C(=O)NO)n1

- IC50 [1]: 0.68 µM
SMILES: O=C(O)c1ccc2cccc(NS(=O)(=O)c3cccc(F)c3)c2n1

- IC50 [1]: 22.7 µM
SMILES: O=C(O)c1cccc(C(=O)NOCc2ccccc2)n1

- IC50 [1]: 0.44 µM
SMILES: O=C(O)c1ccc2cccc(NS(=O)(=O)c3ccccc3Cl)c2n1

- IC50 [1]: 0.56 µM
SMILES: O=C(O)c1ccc2cccc(NS(=O)(=O)c3cccc([N+](=O)[O-])c3)c2n1

- IC50 [1]: 17.6 µM
SMILES: COC(=O)c1ccc2cccc(NS(C)(=O)=O)c2n1

- IC50 [1]: 0.25 µM
SMILES: Nc1cccc(-c2cc(C(=O)O)nc3c(NS(=O)(=O)c4ccccn4)cccc23)c1

- IC50 [1]: 2.5 µM
SMILES: Oc1c(I)cc(I)c2cccnc12 [IODOQUINOL]

- IC50 [1]: 0.5 µM
SMILES: O=C(O)c1ccc2cccc(NS(=O)(=O)c3cccc(Cl)c3)c2n1

- inhibition [2]: < 5%
- inhibition [3]: < 5%
- inhibition [4]: < 5%
SMILES: C[C@H](CS)C(=O)N1CCC[C@H]1C(=O)O
